From patent publication US20260070945A1, “MACROCYCLIC IMMUNOMODULATORS” (Bristol-Myers Squibb Company, priority 2022, published 2026)
Where a SMILES comes first, the peptide text is derived from it. Bridges are numbered along the chain shown (N, C = ends). [ ]: non-standard residue; d: D form. The star is where a group is joined. ξ: configuration not given here. Phe(4-COOH) = N[C@@H](Cc1ccc(C(=O)O)cc1)C(=O)O; Bip = N[C@@H](Cc1ccc(-c2ccccc2)cc1)C(=O)O; Phe(3-Me) = Cc1cccc(C[C@H](N)C(=O)O)c1; hhGln = NC(=O)CCCC[C@H](N)C(=O)O; Cha = N[C@@H](CC1CCCCC1)C(=O)O; Cit = NC(=O)NCCC[C@H](N)C(=O)O; Thr(3ξ) = CC(O)[C@H](N)C(=O)O; hSer = N[C@@H](CCO)C(=O)O; Carboxymethyl = O=C(O)C*; NMeA = CN[C@@H](C)C(=O)O; Aun = NCCCCCCCCCCC(=O)O; Dab = NCC[C@H](N)C(=O)O; Dap = NC[C@H](N)C(=O)O; AEEA = NCCOCCOCC(=O)O

These molecules were tested against T1, PD-1/PD-L1 interaction (PE-labeled human PD-L1-Ig binding to Jurkat cell line over-expressing human PD-1) (Homo sapiens, UniProt Q15116) (assay: Jurkat-PD-1 Cell Binding High-Content Screening Assay (CBA)). Conditions: Jurkat-hPD-1 cells, PE-labeled PD-L1-Ig 20 nM final; read-out: Jurkat HPD1 PDL1 IC50.
T1 construct: expressed in transfected cells; host or cells: Jurkat
T1 sequence (Q15116 25-288): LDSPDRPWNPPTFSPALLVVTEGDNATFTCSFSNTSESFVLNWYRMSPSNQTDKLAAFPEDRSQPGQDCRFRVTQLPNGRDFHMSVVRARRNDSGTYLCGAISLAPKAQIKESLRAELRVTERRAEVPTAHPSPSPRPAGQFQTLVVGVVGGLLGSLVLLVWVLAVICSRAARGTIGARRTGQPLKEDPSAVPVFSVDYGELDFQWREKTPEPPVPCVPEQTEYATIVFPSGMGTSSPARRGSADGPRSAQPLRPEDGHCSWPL
How it was run: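 Jurkat-hPD-1 cells (8×10^3/well) in DMEM with 10% fetal calf serum were preincubated with compound for 2 h at 37 °C. PE-labeled PD-L1-Ig was then added at 20 nM final for 1 h. Cells were fixed in paraformaldehyde with Hoechst 33342, washed and imaged by high-content imaging.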

IC50 [nM]	SMILES
23.5	Cc1cccc(C[C@@H]2NC(=O)[C@H](CC(=O)O)NC(=O)[C@H](Cc3ccc(OCC(=O)O)cc3)NC(=O)[C@H](Cc3ccc(OCC(=O)O)cc3)NC(=O)CSC[C@@H](C(=O)N[C@@H](CN)C(=O)NCCCCCCCCCCC(=O)O)NC(=O)[C@H](C(C)O)NC(=O)[C@H](C(C)C)NC(=O)[C@H](CC3CCCCC3)NC(=O)[C@H](CCN)NC(=O)[C@@H](CC(C)C)NC(=O)[C@H](C)N(C)C(=O)[C@H](C(C)C)NC(=O)[C@H](Cc3ccc(-c4ccccc4)cc3)NC(=O)[C@H](CC(C)C)NC2=O)c1 (stereo partly drawn) [Example 2333] ({CH2CO}-Y(Carboxymethyl)Y(Carboxymethyl)D[Phe(3-Me)]L[Bip]V[NMeA][dL][Dab][Cha]V[Thr(3ξ)]C[Dap][Aun]-OH; thioether N-14)
22.8	Cc1cccc(C[C@@H]2NC(=O)[C@H](CC(=O)O)NC(=O)[C@H](Cc3ccc(OCC(=O)O)cc3)NC(=O)[C@H](Cc3ccc(OCC(=O)O)cc3)NC(=O)CSC[C@@H](C(=O)N[C@@H](CN)C(=O)NCCCCCCCCCCC(=O)O)NC(=O)[C@H](C(C)O)NC(=O)[C@H](C(C)C)NC(=O)[C@H](CC3CCCCC3)NC(=O)[C@H](CCN)NC(=O)[C@@H](CC(C)C)NC(=O)[C@H](C)N(C)C(=O)[C@H](CCCNC(N)=O)NC(=O)[C@H](Cc3ccc(-c4ccccc4)cc3)NC(=O)[C@H](CC(C)C)NC2=O)c1 (stereo partly drawn) [Example 2334] ({CH2CO}-Y(Carboxymethyl)Y(Carboxymethyl)D[Phe(3-Me)]L[Bip][Cit][NMeA][dL][Dab][Cha]V[Thr(3ξ)]C[Dap][Aun]-OH; thioether N-14)
47.4	Cc1cccc(C[C@@H]2NC(=O)[C@H](CC(=O)O)NC(=O)[C@H](Cc3ccc(C(=O)O)cc3)NC(=O)[C@H](Cc3ccc(OCC(=O)O)cc3)NC(=O)CSC[C@@H](C(=O)N[C@@H](CCN)C(=O)NCCCCCCCCCCC(=O)O)NC(=O)[C@H](C(C)O)NC(=O)[C@H](C(C)C)NC(=O)[C@H](CC3CCCCC3)NC(=O)[C@H](CCN)NC(=O)[C@@H](CC(C)C)NC(=O)[C@H](C)N(C)C(=O)[C@H](Cc3ccc(C(=O)O)cc3)NC(=O)[C@H](Cc3ccc(-c4ccccc4)cc3)NC(=O)[C@H](CC(C)C)NC2=O)c1 (stereo partly drawn) [Example 2335] ({CH2CO}-Y(Carboxymethyl)[Phe(4-COOH)]D[Phe(3-Me)]L[Bip][Phe(4-COOH)][NMeA][dL][Dab][Cha]V[Thr(3ξ)]C[Dab][Aun]-OH; thioether N-14)
6.7	Cc1cccc(C[C@@H]2NC(=O)[C@H](CC(=O)O)NC(=O)[C@H](Cc3ccc(OCC(=O)O)cc3)NC(=O)[C@H](C(C)O)NC(=O)CSC[C@@H](C(=O)N[C@@H](CCN)C(=O)NCCCCCCCCCCC(=O)O)NC(=O)[C@H](C(C)O)NC(=O)[C@H](C(C)C)NC(=O)[C@H](CC3CCCCC3)NC(=O)[C@H](CCN)NC(=O)[C@@H](CC(C)C)NC(=O)[C@H](C)N(C)C(=O)[C@H](CCCNC(N)=O)NC(=O)[C@H](Cc3ccc(-c4ccccc4)cc3)NC(=O)[C@H](C(C)C)NC2=O)c1 (stereo partly drawn) [Example 2336] ({CH2CO}-[Thr(3ξ)]Y(Carboxymethyl)D[Phe(3-Me)]V[Bip][Cit][NMeA][dL][Dab][Cha]V[Thr(3ξ)]C[Dab][Aun]-OH; thioether N-14)
5.5	Cc1cccc(C[C@@H]2NC(=O)[C@H](CC(=O)O)NC(=O)[C@H](Cc3ccc(OCC(=O)O)cc3)NC(=O)[C@H](C(C)O)NC(=O)CSC[C@@H](C(=O)N[C@H](CC(N)=O)C(=O)NCCCCCCCCCCC(=O)O)NC(=O)[C@H](C(C)O)NC(=O)[C@H](C(C)C)NC(=O)[C@H](CC3CCCCC3)NC(=O)[C@H](CCN)NC(=O)[C@@H](CC(C)C)NC(=O)[C@H](C)N(C)C(=O)[C@H](CCCNC(=N)N)NC(=O)[C@H](Cc3ccc(-c4ccccc4)cc3)NC(=O)[C@H](Cc3ccc(O)cc3)NC2=O)c1 (stereo partly drawn) [Example 2338] ({CH2CO}-[Thr(3ξ)]Y(Carboxymethyl)D[Phe(3-Me)]Y[Bip]R[NMeA][dL][Dab][Cha]V[Thr(3ξ)]C[dN][Aun]-OH; thioether N-14)
41.7	Cc1cccc(C[C@@H]2NC(=O)[C@H](CC(=O)O)NC(=O)[C@H](Cc3ccc(OCC(=O)O)cc3)NC(=O)[C@H](C(C)O)NC(=O)CSC[C@@H](C(=O)NCCOCCOCC(=O)NCCCCCCCCCCC(=O)O)NC(=O)[C@H](C(C)O)NC(=O)[C@H](C(C)C)NC(=O)[C@H](CC3CCCCC3)NC(=O)[C@H](CCN)NC(=O)[C@@H](CC(C)C)NC(=O)[C@H](C)N(C)C(=O)[C@H](Cc3ccc(OCC(=O)O)cc3)NC(=O)[C@H](Cc3ccc(-c4ccccc4)cc3)NC(=O)[C@H](Cc3ccc(OCC(=O)O)cc3)NC2=O)c1 (stereo partly drawn) [Example 2341] ({CH2CO}-[Thr(3ξ)]Y(Carboxymethyl)D[Phe(3-Me)]Y(Carboxymethyl)[Bip]Y(Carboxymethyl)[NMeA][dL][Dab][Cha]V[Thr(3ξ)]C[AEEA][Aun]-OH; thioether N-14)
74.8	Cc1cccc(C[C@@H]2NC(=O)[C@H](CC(=O)O)NC(=O)[C@H](Cc3ccc(OCC(=O)O)cc3)NC(=O)[C@H](CCCNC(=N)N)NC(=O)CSC[C@@H](C(=O)NCCOCCOCC(=O)NCCCCCCCCCCC(=O)O)NC(=O)[C@H](C(C)O)NC(=O)[C@H](C(C)C)NC(=O)[C@H](CC3CCCCC3)NC(=O)[C@H](CCN)NC(=O)[C@@H](CC(C)C)NC(=O)[C@H](C)N(C)C(=O)[C@H](Cc3ccc(OCC(=O)O)cc3)NC(=O)[C@H](Cc3ccc(-c4ccccc4)cc3)NC(=O)[C@H](Cc3ccc(OCC(=O)O)cc3)NC2=O)c1 (stereo partly drawn) [Example 2342] ({CH2CO}-RY(Carboxymethyl)D[Phe(3-Me)]Y(Carboxymethyl)[Bip]Y(Carboxymethyl)[NMeA][dL][Dab][Cha]V[Thr(3ξ)]C[AEEA][Aun]-OH; thioether N-14)
51.7	Cc1cccc(C[C@@H]2NC(=O)[C@H](CC(=O)O)NC(=O)[C@H](Cc3ccc(OCC(=O)O)cc3)NC(=O)[C@H](C(C)O)NC(=O)CSC[C@@H](C(=O)NCCOCCOCC(=O)NCCCCCCCCCCC(=O)O)NC(=O)[C@H](C(C)O)NC(=O)[C@H](C(C)C)NC(=O)[C@H](CC3CCCCC3)NC(=O)[C@H](CCN)NC(=O)[C@@H](CC(C)C)NC(=O)[C@H](C)N(C)C(=O)[C@H](Cc3ccc(OCC(=O)O)cc3)NC(=O)[C@H](Cc3ccc(-c4ccccc4)cc3)NC(=O)[C@H](Cc3ccc(C(=O)O)cc3)NC2=O)c1 (stereo partly drawn) [Example 2343] ({CH2CO}-[Thr(3ξ)]Y(Carboxymethyl)D[Phe(3-Me)][Phe(4-COOH)][Bip]Y(Carboxymethyl)[NMeA][dL][Dab][Cha]V[Thr(3ξ)]C[AEEA][Aun]-OH; thioether N-14)
67.5	Cc1cccc(C[C@@H]2NC(=O)[C@H](CC(=O)O)NC(=O)[C@H](Cc3ccc(OCC(=O)O)cc3)NC(=O)[C@H](C(C)O)NC(=O)CSC[C@@H](C(=O)NCCOCCOCC(=O)NCCCCCCCCCCC(=O)O)NC(=O)[C@H](C(C)O)NC(=O)[C@H](C(C)C)NC(=O)[C@H](CC3CCCCC3)NC(=O)[C@H](CCN)NC(=O)[C@@H](CC(C)C)NC(=O)[C@H](C)N(C)C(=O)[C@H](Cc3ccc(OCC(=O)O)cc3)NC(=O)[C@H](Cc3ccc(-c4ccccc4)cc3)NC(=O)[C@H](CCCCC(N)=O)NC2=O)c1 (stereo partly drawn) [Example 2345] ({CH2CO}-[Thr(3ξ)]Y(Carboxymethyl)D[Phe(3-Me)][hhGln][Bip]Y(Carboxymethyl)[NMeA][dL][Dab][Cha]V[Thr(3ξ)]C[AEEA][Aun]-OH; thioether N-14)
23.1	Cc1cccc(C[C@@H]2NC(=O)[C@H](CC(=O)O)NC(=O)[C@H](Cc3ccc(OCC(=O)O)cc3)NC(=O)[C@H](C(C)O)NC(=O)CSC[C@@H](C(=O)NCCOCCOCC(=O)NCCCCCCCCCCC(=O)O)NC(=O)[C@H](C(C)O)NC(=O)[C@H](C(C)C)NC(=O)[C@H](CC3CCCCC3)NC(=O)[C@H](CCN)NC(=O)[C@@H](CC(C)C)NC(=O)[C@H](C)N(C)C(=O)[C@H](Cc3ccc(OCC(=O)O)cc3)NC(=O)[C@H](Cc3ccc(-c4ccccc4)cc3)NC(=O)[C@H](C(C)C)NC2=O)c1 (stereo partly drawn) [Example 2346] ({CH2CO}-[Thr(3ξ)]Y(Carboxymethyl)D[Phe(3-Me)]V[Bip]Y(Carboxymethyl)[NMeA][dL][Dab][Cha]V[Thr(3ξ)]C[AEEA][Aun]-OH; thioether N-14)
9.3	Cc1cccc(C[C@@H]2NC(=O)[C@H](CC(=O)O)NC(=O)[C@H](Cc3ccc(OCC(=O)O)cc3)NC(=O)[C@H](C(C)O)NC(=O)CSC[C@@H](C(=O)N[C@@H](CCN)C(=O)NCCCCCCCCCCC(=O)O)NC(=O)[C@H](C(C)O)NC(=O)[C@H](C(C)C)NC(=O)[C@H](CC3CCCCC3)NC(=O)[C@H](CCN)NC(=O)[C@@H](CC(C)C)NC(=O)[C@H](C)N(C)C(=O)[C@H](Cc3ccc(OCC(=O)O)cc3)NC(=O)[C@H](Cc3ccc(-c4ccccc4)cc3)NC(=O)[C@H](Cc3ccc(C(=O)O)cc3)NC2=O)c1 (stereo partly drawn) [Example 2347] ({CH2CO}-[Thr(3ξ)]Y(Carboxymethyl)D[Phe(3-Me)][Phe(4-COOH)][Bip]Y(Carboxymethyl)[NMeA][dL][Dab][Cha]V[Thr(3ξ)]C[Dab][Aun]-OH; thioether N-14)
30.1	Cc1cccc(C[C@@H]2NC(=O)[C@H](CC(=O)O)NC(=O)[C@H](Cc3ccc(OCC(=O)O)cc3)NC(=O)[C@H](C(C)O)NC(=O)CSC[C@@H](C(=O)N[C@@H](CCN)C(=O)NCCCCCCCCCCC(=O)O)NC(=O)[C@H](CCO)NC(=O)[C@H](C(C)C)NC(=O)[C@H](CC3CCCCC3)NC(=O)[C@H](CCN)NC(=O)[C@@H](CC(C)C)NC(=O)[C@H](C)N(C)C(=O)[C@H](Cc3ccc(OCC(=O)O)cc3)NC(=O)[C@H](Cc3ccc(-c4ccccc4)cc3)NC(=O)[C@H](CCCNC(N)=O)NC2=O)c1 (stereo partly drawn) [Example 2348] ({CH2CO}-[Thr(3ξ)]Y(Carboxymethyl)D[Phe(3-Me)][Cit][Bip]Y(Carboxymethyl)[NMeA][dL][Dab][Cha]V[hSer]C[Dab][Aun]-OH; thioether N-14)
